The nature of one series: Solubility in solvents. In kind it is physicochemical. The method, then: Melting point: 180-1<*>C, Yield: 90%. White powder crystals. Insoluble in water, low-solubility in methanol, ethanol and acetone, and soluble in chloroform.
Melting point 196-7° C., Yield: 93%. White powder crystals. Insoluble in water, methanol, ethanol and acetone, but soluble in chloroform.

A short description of series [1]: DPPH free radical scavenging effect. The conditions noted are these: 1000 μg/ml. (In general: DPPH is a stable violet radical that fades when it is reduced.)
The next series in a line: Metal chelation effect. The conditions noted are these: for iron chelation effect: dose amount of 1000 μg/ml.
Series [2] can be described thus: Phosphomolybdenum reduction antioxidant power (PRAP). The conditions noted are these: for Phosphomolybdenum Reduction Antioxidant Power (Absorbance at 600 nm ± S.S): 1000 μg/ml.
The subject of the next series is collagenase. Put plainly: Collagenase enzyme inhibition. Format: biochemical. The method, then: Physical properties of the compounds such as efficiency of synthesis reactions and melting points are determined. […] Antidermatophytic activity of the compounds against Trichophyton mentagrophytes var. erinacei, Epidermophyton floccosum and Microsporum gypseum as well as their antimycobacterial activity against Mycobacterium tuberculosis H37Rv (ATCC 27294) and M. avium (ATCC 15769) are analyzed under non-toxic concentrations using MRC-5 and He-La cell lines. Antityrosinase activity thereof is determined by spectrophotometric method using L-DOPA as a substrate. Antioxidant activity is determined by the methods of 2,2-diphenyl-1-picrilhydrasil (DPPH), N,N-dimethyl-p-phenylenediamine (DMPD) radical scavenging activity, metal chelation effect, iron-(FRAP), phosphomolybdenum-(PRAP) reducing antioxidant power. Elastase and collagenase enzyme inhibitions are performed to determine anti-aging activity. Due to their antityrosinase, antioxidant, anti-aging, antidermatophytic and antimycobacterial effects, the compounds may be used in medicine, cosmeceutical, food and textile industry.

The subject of another series is elastase. Put plainly: Elastase enzyme inhibition. In kind it is biochemical.
Series [3] in a line: DMPD radical scavenging effect. The conditions noted are these: 1000 μg/ml.
A short description of series [4]: Iron reduction antioxidant power (FRAP). Particulars: 1000 μg/ml.
The test system of another series is M. avium (ATCC 15769). Put plainly: Antimycobacterial activity. In kind it is cell-based, Mycobacterium avium. The conditions noted are these: for MIC: Mycobacterium avium.
Another series deals with tyrosinase. Format: biochemical.
The mark [5] stands for this setting: ATCC15769, value column 8 of the table, read-out: MIC against M. avium.

Converted amounts (≈) assume the structure as drawn. Where two headings read alike, the source gives them in different places.

“3-Hydmxy-6-(hydmxymethyl)-2-[{4-(2,6 diclorobenzyl)piperazme-1-il]methyl-4H-pyran-4-one [Compound of Formula 2]”: in the series “Solubility in solvents”, the solubility in chloroform entry is reported as “soluble”; the “solubility in methanol, ethanol and acetone” value was “Insoluble”; the solubility in water entry is recorded as “Insoluble”. For the same molecule, the “DPPH Free Radical Scavenging Effect (Scavenging % ± S.S)” value in series [1] turned out to be 12.20 ± 1.72%. In addition, the “Metal Chelation Effect (Chelation % ± S.S)” value in “Metal chelation effect” (1000 μg/ml) is on record as 58.17 ± 0.99%. Moreover, the “iron chelation effect” value in the series “Metal chelation effect” was 58.17±0.99%. For the same molecule, in series [2], the “antioxidant power of phosphomolybdenum structure” value is 0.187 ± 0.017 µg/mL and the “Phosphomolybdenum Reduction Antioxidant Power (Absorbance at 600 nm ± S.S)” value is on record as 0.187 ± 0.017. In the series with collagenase (1000 μg/ml-Stock), the “Collagenase Enzyme Inhibition (Inhibition % ± S.S)” value is 12.40 ± 4.57%. The elastase enzyme inhibition result in the series with elastase is “No elastase enzyme inhibition is detected”. Besides, the “DMPD Radical Scavenging Effect (Scavenging % ± S.S)” value in series [3] is given as 24.94 ± 1.64%. The “Iron Reduction Antioxidant Power (Absorbance at 700 nm ± S.S)” value (shortened to “Iron Reduction Antioxidant Power”) in series [4] was found to be 0.217 ± 0.002. In addition, the “MIC against M. avium” value in the series on M. avium (ATCC 15769) turned out to be 2 µg/mL.

Take `O=C1O[C@H]([C@@H](O)CO)C(O)=C1O` [Ascorbic acid]: the “DMPD Radical Scavenging Effect (Scavenging % ± S.S)” value in series [3] is 69.58 ± 0.71%.

Usually MIC stands for the lowest concentration found to suppress growth. As a reminder, the melting point is the temperature, or range, at which the solid turns liquid. On to `O=c1cc(CO)oc(CN2CCN(Cc3ccc(Cl)c(Cl)c3)CC2)c1O` [Compound of Formula 1], for which the melting point is 180 to 181 °C. Besides, in “Solubility in solvents”, the solubility in chloroform result is given as “soluble”; the “solubility in methanol, ethanol and acetone” value is “low-solubility”; the solubility in water result is given as “Insoluble”. In addition, the “DPPH Free Radical Scavenging Effect (Scavenging % ± S.S)” value in series [1] came out at 14.59 ± 2.52%. In “Metal chelation effect” (1000 μg/ml), the “Metal Chelation Effect (Chelation % ± S.S)” value was determined as 67.57 ± 1.30%. The “iron chelation effect” value in “Metal chelation effect” is recorded as 67.57±1.30%. For the same molecule, in series [2], the “antioxidant power of phosphomolybdenum structure” value stood at 0.154 ± 0.004 µg/mL and the “Phosphomolybdenum Reduction Antioxidant Power (Absorbance at 600 nm ± S.S)” value is on record as 0.154 ± 0.004. In addition, the “IC50 (tyrosinase)” value against tyrosinase was 11 ± 1 µg/mL. In addition, the Low-dose antityrosinase activity in the series with tyrosinase (0.0025 mg/ml) was determined as 23.63 ± 1.65. Also, the Low-dose antityrosinase activity with tyrosinase (0.005 mg/ml) was 37.81 ± 0.54. The molecule also came in with a Low-dose antityrosinase activity in the series on tyrosinase (0.01 mg/ml) of 51.25 ± 1.09. In the series on tyrosinase (0.025 mg/ml), this molecule showed a Low-dose antityrosinase activity of 56.79 ± 0.44. Besides, the Low-dose antityrosinase activity in the series on tyrosinase (0.05 mg/ml) was found to be 70.62 ± 1.62. Besides, in the series with tyrosinase (0.1 mg/ml), the Low-dose antityrosinase activity is 73.57 ± 4.81. For the same molecule, the Low-dose antityrosinase activity in the series with tyrosinase (0.25 mg/ml) was 80.63 ± 2.01. In the series with tyrosinase (relative to kojic acid), the “antityrosinase effect, times higher than kojic acid” value was 6 times. The “Collagenase Enzyme Inhibition (Inhibition % ± S.S)” value in the series on collagenase (1000 μg/ml-Stock) was determined as 15.57 ± 2.24%. The elastase enzyme inhibition entry in the series with elastase is given as “No elastase enzyme inhibition is detected”. In addition, the “DMPD Radical Scavenging Effect (Scavenging % ± S.S)” value in series [3] was determined as 36.05 ± 3.11%. In addition, the “Iron Reduction Antioxidant Power” value in series [4] was found to be 0.274 ± 0.003. Further, in the series with M. avium (ATCC 15769) (setting [5]), the MIC worked out at 2 µg/mL.

For the molecule `O=C(O)CN(CCN(CC(=O)O)CC(=O)O)CC(=O)O` [EDTA, ethylenediaminetetraacetic acid], in “Metal chelation effect” (2000 μg/ml), the “Metal Chelation Effect (Chelation % ± S.S)” value came to 97.66±0.12%.

`O=C(O[C@@H]1Cc2c(O)cc(O)cc2O[C@@H]1c1cc(O)c(O)c(O)c1)c1cc(O)c(O)c(O)c1` [EGCG, epigallocatechin gallate]: in the series with collagenase (15 mM), the “Collagenase Enzyme Inhibition (Inhibition % ± S.S)” value amounted to 44.64 ± 2.87%.

As for `NNC(=O)c1ccncc1` [Isoniazide], the MIC in the series with M. avium (ATCC 15769) (setting [5]) worked out at 0.125 µg/mL (≈ 0.911 µM).

With `O=c1cc(CO)occ1O` [Kojic Acid, Kojic acid], the “DPPH Free Radical Scavenging Effect (Scavenging % ± S.S)” value in series [1] was 22.51 ± 2.65%. Further, the “Metal Chelation Effect (Chelation % ± S.S)” value in the series “Metal chelation effect” (1000 μg/ml) is reported as 8.89 ± 0.75%. For the same molecule, the “antioxidant power of phosphomolybdenum structure” value in series [2] was 0.103 ± 0.006 µg/mL. For the same molecule, in series [2], the “Phosphomolybdenum Reduction Antioxidant Power (Absorbance at 600 nm ± S.S)” value came to 0.103 ± 0.006. In addition, the Low-dose antityrosinase activity with tyrosinase (0.025 mg/ml) is reported as 18.65 ± 1.33; with tyrosinase (0.05 mg/ml), 44.74 ± 0.53; in the series with tyrosinase (0.1 mg/ml), 61.28 ± 2.03; in the series on tyrosinase (0.25 mg/ml), 77.44 ± 0.68. For the same molecule, in the series on collagenase (1000 μg/ml-Stock), the “Collagenase Enzyme Inhibition (Inhibition % ± S.S)” value is on record as 15.18 ± 5.92%. Further, in the series on elastase, the elastase enzyme inhibition entry is “No elastase enzyme inhibition is detected”. Moreover, the “DMPD Radical Scavenging Effect (Scavenging % ± S.S)” value in series [3] is given as 41.86 ± 1.10%. Also, the “Iron Reduction Antioxidant Power” value in series [4] is on record as 0.757 ± 0.026. Moreover, the MIC with M. avium (ATCC 15769) (ATCC15769, read-out: MIC against M. avium) came out at 16 µg/mL (≈ 113 µM).

As to `O=c1c(O)c(-c2ccc(O)c(O)c2)oc2cc(O)cc(O)c12` [Quercetin, quercetin], in series [1], the “DPPH Free Radical Scavenging Effect (Scavenging % ± S.S)” value stood at 91.14 ± 0.65%. Also, the “Phosphomolybdenum Reduction Antioxidant Power (Absorbance at 600 nm ± S.S)” value in series [2] worked out at 0.320 ± 0.005. Besides, the “Iron Reduction Antioxidant Power” value in series [4] came out at 2.015 ± 0.032.

The values are drawn from US9975884B2, “Kojic acid-derived mannich bases with biological effect” (priority 2015, dated 2018).
